In PMC8464048 (Nucleic Acids Research, 2021):

Target: T1, EcGlyRS-FL (heterotetrameric (αβ)2 glycyl-tRNA synthetase) (Escherichia coli, UniProt P00960+P00961)
T1 construct: gene glyQ; full-length alpha (1-303) and full-length beta (1-689, C-terminal 6xHis), co-expressed in E. coli BL21(DE3); (αβ)2 heterotetramer
T1 sequence (P00960 1-303): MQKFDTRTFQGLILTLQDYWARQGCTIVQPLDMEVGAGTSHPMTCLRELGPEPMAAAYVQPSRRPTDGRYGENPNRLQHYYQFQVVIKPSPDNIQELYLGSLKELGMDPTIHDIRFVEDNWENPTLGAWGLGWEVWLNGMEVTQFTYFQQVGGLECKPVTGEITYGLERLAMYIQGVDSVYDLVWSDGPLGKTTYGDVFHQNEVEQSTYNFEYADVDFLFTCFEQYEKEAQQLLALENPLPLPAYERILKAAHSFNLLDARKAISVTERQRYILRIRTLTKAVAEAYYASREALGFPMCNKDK
T1 sequence (P00961 1-689): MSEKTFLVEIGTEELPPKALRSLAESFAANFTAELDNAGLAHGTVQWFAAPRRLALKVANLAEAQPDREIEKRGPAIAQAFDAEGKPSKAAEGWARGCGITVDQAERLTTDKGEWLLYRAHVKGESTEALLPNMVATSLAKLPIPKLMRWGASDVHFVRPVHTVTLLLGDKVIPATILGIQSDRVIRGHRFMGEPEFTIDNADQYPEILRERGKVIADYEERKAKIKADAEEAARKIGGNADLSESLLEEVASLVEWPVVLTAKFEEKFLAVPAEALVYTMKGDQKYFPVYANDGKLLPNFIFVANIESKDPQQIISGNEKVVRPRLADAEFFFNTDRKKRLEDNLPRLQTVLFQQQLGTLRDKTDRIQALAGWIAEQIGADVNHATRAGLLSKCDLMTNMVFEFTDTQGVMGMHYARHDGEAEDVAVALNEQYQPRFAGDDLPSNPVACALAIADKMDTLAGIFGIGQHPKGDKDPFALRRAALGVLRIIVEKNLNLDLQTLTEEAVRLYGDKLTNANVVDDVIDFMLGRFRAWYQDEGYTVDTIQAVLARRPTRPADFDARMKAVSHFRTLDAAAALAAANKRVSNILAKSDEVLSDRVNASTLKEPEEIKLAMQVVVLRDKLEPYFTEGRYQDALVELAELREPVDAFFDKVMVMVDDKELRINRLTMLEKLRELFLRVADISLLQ
Assay: isothermal titration calorimetry, one-site fit
Assay type: binding

Nc1ncnc2c1ncn2[C@@H]1O[C@H](COP(=O)(O)OP(=O)(O)OP(=O)(O)O)[C@@H](O)[C@H]1O [ATP]
Kd: ~6 µM
